Values of other authors as cited in patent publication US20060099667A1, “Method for performing restrained dynamics docking of one or multiple substrates on multi-specific enzymes” (priority 2002, published 2006).
Entries after “also recorded” stand apart in the source; their conditions may differ. Where a name gives a salt, the structure may show the parent alone.

What was measured:
CYP3A7 = CYP3A7 (Homo sapiens, UniProt P24462)
CYP3A4 = CYP3A4 (Homo sapiens, UniProt P08684)
CYP3A5 = CYP3A5 (Homo sapiens, UniProt P20815)
Sequence of CYP3A5 (P20815 whole entry): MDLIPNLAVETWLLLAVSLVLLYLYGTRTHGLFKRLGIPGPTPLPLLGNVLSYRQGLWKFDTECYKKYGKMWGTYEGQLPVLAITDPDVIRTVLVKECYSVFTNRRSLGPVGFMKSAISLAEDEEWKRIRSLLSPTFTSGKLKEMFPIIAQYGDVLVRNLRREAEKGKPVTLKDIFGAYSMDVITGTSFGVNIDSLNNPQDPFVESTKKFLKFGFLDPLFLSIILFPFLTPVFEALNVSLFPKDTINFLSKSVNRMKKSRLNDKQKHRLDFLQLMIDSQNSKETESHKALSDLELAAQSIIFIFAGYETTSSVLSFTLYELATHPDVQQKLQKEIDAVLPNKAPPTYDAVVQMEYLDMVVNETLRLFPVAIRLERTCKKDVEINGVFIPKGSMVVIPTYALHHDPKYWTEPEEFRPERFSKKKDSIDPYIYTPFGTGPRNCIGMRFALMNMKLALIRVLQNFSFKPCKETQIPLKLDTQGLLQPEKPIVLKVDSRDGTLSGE

Sequence of CYP3A4 (P08684 whole entry): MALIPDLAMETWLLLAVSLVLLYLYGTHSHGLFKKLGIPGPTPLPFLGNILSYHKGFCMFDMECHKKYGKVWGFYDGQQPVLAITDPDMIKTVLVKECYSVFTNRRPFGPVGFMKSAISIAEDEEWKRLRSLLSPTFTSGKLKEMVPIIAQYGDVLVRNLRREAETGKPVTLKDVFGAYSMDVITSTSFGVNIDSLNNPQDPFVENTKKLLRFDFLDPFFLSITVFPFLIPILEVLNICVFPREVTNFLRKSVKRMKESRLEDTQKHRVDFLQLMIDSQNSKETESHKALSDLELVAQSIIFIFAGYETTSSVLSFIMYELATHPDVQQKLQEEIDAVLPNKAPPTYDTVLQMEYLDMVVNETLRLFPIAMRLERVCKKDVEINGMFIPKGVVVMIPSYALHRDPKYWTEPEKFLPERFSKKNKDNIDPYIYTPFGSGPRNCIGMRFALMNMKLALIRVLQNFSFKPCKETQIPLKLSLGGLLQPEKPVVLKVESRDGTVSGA
Sequence of CYP3A7 (P24462 whole entry): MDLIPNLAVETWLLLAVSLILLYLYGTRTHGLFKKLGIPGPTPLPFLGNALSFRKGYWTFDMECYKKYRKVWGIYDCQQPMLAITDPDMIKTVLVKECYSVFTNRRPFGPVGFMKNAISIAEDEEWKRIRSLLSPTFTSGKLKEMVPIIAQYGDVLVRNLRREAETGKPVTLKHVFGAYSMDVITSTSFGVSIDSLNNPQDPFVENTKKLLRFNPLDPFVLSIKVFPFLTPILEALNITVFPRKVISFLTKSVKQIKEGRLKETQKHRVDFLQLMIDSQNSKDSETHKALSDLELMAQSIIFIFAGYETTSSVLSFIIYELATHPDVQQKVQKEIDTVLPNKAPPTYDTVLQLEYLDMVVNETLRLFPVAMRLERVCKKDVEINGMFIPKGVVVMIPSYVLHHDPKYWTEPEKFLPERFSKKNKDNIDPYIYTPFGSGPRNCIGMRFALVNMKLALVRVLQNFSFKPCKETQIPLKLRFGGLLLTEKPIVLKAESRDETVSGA

Row | SMILES | position of oxidation (CYP3A7) | position of oxidation (CYP3A4) | position of oxidation (CYP3A5)
1 | C[C@]12CC[C@H](OS(=O)(=O)O)CC1=CC[C@@H]1[C@@H]2CC[C@]2(C)C(=O)CC[C@@H]12 [DHEA 3 sulfate conjugate] | exclusively on the 16α position | – | –
2 | C[C@]12CC[C@H]3[C@@H](CCC4=CC(=O)CC[C@@]43C)[C@@H]1CC[C@@H]2O [testosterone] | both 6β and 16α position | exclusively at the 6β position; also recorded: almost exclusively in the 6β position | almost exclusively in the 6β position
